Reference: US11850238B2, “Use of a thienopyridone derivative in the treatment of adrenoleukodystrophy or adrenomyeloneuropathy” (POXEL, priority 2020, dated 2023)

Columns and labels:
ABCD2 [1] = test: Western blot of ABCD2 expression in AMN fibroblasts; assay type: cell-based, human; details: AMN fibroblasts, 5, 10, 25 μM, vs control and untreated AMN fibroblasts; FIG. 2
Experimental: More specifically, protein extraction was performed as follows.
(§1) The cells were washed with cold Tris-buffered saline (20 mM Trizma base and 137 mM NaCl, pH 7.5) and lysed in 1×SDS sample-loading buffer (62.5 mM Trizma base, 2% [w/v] SDS, 10% glycerol), and after sonication and centrifugation at 15,000 g for 5 min, the supernatant was used for the immunoblot assay. The protein concentration of samples was determined with the detergent compatible protein assay reagent (Bio-Rad) using BSA as the standard. The sample was boiled for 3 min with 0.1 volumes of 10% β mercaptoethanol and 0.5% bromphenol blue mix. Then, 40 μg of total cellular protein was resolved by electrophoresis on 8 or 12% polyacrylamide gels, electrotransferred and blocked with Tween 20-containing Tris-buffered saline (TBST; 10 mM Trizma base, pH 7.4, 1% Tween 20, and 150 mM NaCl) with 5% skim milk. After incubation with antibodies against ABCD2, ABCD3, and (β-actin at 4^0 overnight, the membranes were then washed with TBST and incubated with horseradish peroxidase-conjugated anti-rabbit or mouse IgG for 1 h at room temperature. The membranes were detected by autoradiography using ECL-plus (Amersham Biosciences) after washing with TBST buffer.
The experiments described in Examples 4 and 6 were performed with metformin by the same lab and described by Singh et al. in Journal of Neurochemistry, 2016; 138, 86-100.

ABCD1-KO mice = test: In vivo X-ALD mouse, 60 days: VLCFA (C26:0) in brain cortex and plasma; details: male ABCD1-KO mice, 75 mg/kg oral gavage twice a day
Experimental: Male ABCD1-KO mice (n=15) were treated with oral gavage of PXL770 (75 mg/kg) twice a day, every day for 60 days. Untreated ABCD1-KO mice (n=15) and wild-type (WT) mice (n=12) served as controls. Post-treatment mice were sacrificed and brain cortex and plasma were collected for VLCFA analysis. The analysis was performed according to the standardized protocols of the Lipidomics Core Facility and data are expressed as VLCFA μg/ml levels. Hexacosanoic acid (C26:0) was selected as representative for VLCFAs.
A one-way ANOVA with Dunnett's multiple comparison test was performed to assess the effect of PXL770 on brain's VLCFAs (**** p<0.0001, *** p<0.001). A Kruskal-Wallis test with Dunn's multiple comparison test was performed to assess the effect of PXL770 on plasma's VLCFAs (**** p<0.0001, […]).

ABCD2 [2] = test: Western blot of ABCD2 expression in ALD-KO mouse brain cortex mixed glial cells; assay type: cell-based; details: vs non-treated, FIG. 4
Experimental: as §1
The same experimental protocol as in example 4 was performed for ALD-KO mouse brain cortex mixed glial cells. This model is mainly a model for AMN. […]

[3] = test system: ALD patient-derived lymphocytes; test: Hexacosanoic acid (VLCFA) level in ALD patient-derived lymphocytes; assay type: cell-based, human
Experimental: After studies on cells from patients with the […] of ALD (AMN) the inventors replicated the same study method as in example 1 to analyze the effect of PXL770 on cells from X-ALD patients (severe inflammatory phenotype).
The experiments described in Examples 3 and 7 were performed with metformin by the same lab and described by Singh et al. in Journal of Neurochemistry, 2016; 138, 86-100.

[4] = test system: ALD-KO mouse-mixed glial cells; test: Hexacosanoic acid (VLCFA) level in ALD-KO mouse mixed glial cells; assay type: cell-based; details: 25 μM, FIG. 3
Experimental: The inventors carried out a study of the measurement of VLCFA accumulation in AMN mouse-mixed glial cells when they are not undergoing any treatment and when they are treated with PXL770 at different doses.
C57BL6 mouse breeding pairs were purchased from Jackson Laboratory (Bar Harbor, ME) and maintained at the Henry Ford Health System (HFHS) animal facility. All animal procedures were approved by the HFHS Animal Review Committee and all animals received humane care in compliance with the HFHS experimental guidelines and the National Research Council's criteria for humane care (Guide for Care and Use of Laboratory Animals). Mouse with Abcd1 gene knocked-out were raised and used to extract mixed glial cells. Primary astrocyte-enriched cultures were prepared from the whole cortex of 1-day-old C57BL/6 mice. Briefly, the cortex was rapidly dissected in ice-cold calcium/magnesium-free HBSS at pH 7.4 as described previously. The tissue was minced, incubated in HBSS containing trypsin (2 mg/ml) for 20 min, and washed twice in plating medium containing 10% FBS and 10 μg/ml gentamicin and then disrupted by triturating through a Pasteur pipette, after which cells were seeded in 75-cm^2 culture flasks (Falcon, Franklin, NJ). […]
Hexacosanoic acid level in six groups of mixed glial cells was measured. […]

[5] = ALD lymphocytes, increasing concentrations, FIG. 5

O=c1[nH]c2sc(Cl)c(-c3ccc4c(c3O)CCCC4)c2c([O-])c1-c1ccccc1.[K+] [PXL770, monohydrate potassium salt of 2-chloro-4-hydroxy-3-(5-hydroxytetralin-6-yl)-5-phenyl-7H-thieno[2,3-b]pyridin-6-one]
expression of ABCD2 (Western blot) (ABCD2 [1]): overexpression | VLCFA accumulation in the brain cortex (ABCD1-KO mice; FIG. 7): significantly reduces | VLCFA accumulation in the plasma (ABCD1-KO mice; FIG. 8): significantly reduces | expression of ABCD2 (Western blot) (ABCD2 [2]): overexpression | level of hexacosanoic acid [3, 5]: decreases | level of hexacosanoic acid compared to healthy controls [3, 5]: same level as that present in lymphocytes of healthy controls | VLCFA content, normalization ([3]; ALD patient cells, 5 μM): normalization effect | accumulation of hexacosanoic acid [4]: decreases
